PubChem BioAssay AID266 (DTP/NCI, 2004)
Several values for one entry are separate records, joined by “and”; a condition that tells them apart may be missing. Equal values may be shown once. Inconclusive results are not listed.

Tested on: Nude mice, LX-1 lung xenograft intrarenal, tumor weight T/C
Assay: NCI In Vivo Anticancer Drug Screen. Data for tumor model Human Lung LX-1 Xenograft (intrarenal inoculation) in NU/NU BALB/C (nude) mice
Conditions: endpoint: mean tumor weight change, higher = larger tumour
Protocol: The antitumor activity of compounds was measured in mice bearing transplantable tumors. Survival or tumor size were measured and the results are expressed as the measurement made in the treated group (T) divided by the measurement made in the vehicle treated control group (C). The tumor model used in this assay is Human Lung LX-1 Xenograft (intrarenal inoculation) in NU/NU BALB/C (nude) mice

[1] = dose: 100.0 mg/kg/injection, schedule: Q04DX003 (sc), vehicle: saline with Tween-80
[2] = dose: 200.0 mg/kg/injection, schedule: Q04DX003 (sc), vehicle: saline with Tween-80
[3] = dose: 300.0 mg/kg/injection, schedule: Q04DX003 (sc), vehicle: saline with Tween-80
[4] = dose: 600.0 mg/kg/injection, schedule: Q04DX003 (sc), vehicle: saline with Tween-80
[5] = dose: 1200.0 mg/kg/injection, schedule: Q04DX003 (sc), vehicle: saline with Tween-80
[6] = dose: 300.0 mg/kg/injection, schedule: Q04DX003 (sc), vehicle: saline
[7] = dose: 600.0 mg/kg/injection, schedule: Q04DX003 (sc), vehicle: saline
[8] = dose: 1200.0 mg/kg/injection, schedule: Q04DX003 (sc), vehicle: saline
[9] = dose: 2400.0 mg/kg/injection, schedule: Q04DX003 (sc), vehicle: saline
[10] = dose: 2400.0 mg/kg/injection, schedule: Q04DX003 (sc), vehicle: saline with Tween-80
[11] = dose: 200.0 mg/kg/injection, schedule: Q01DX010 (sc), vehicle: Klucel (hydroxypropylcellulose) (HPC)

O=CC(S)CO (stereo unspecified)
T/C (dose: 100.0 mg/kg/injection, schedule: Q04DX003 (sc), vehicle: suspension in saline): 94 % of control
T/C (dose: 200.0 mg/kg/injection, schedule: Q04DX003 (sc), vehicle: suspension in saline): 94 % of control
T/C (dose: 400.0 mg/kg/injection, schedule: Q04DX003 (sc), vehicle: suspension in saline): 84 % of control

COCC(O)Cn1ccnc1[N+](=O)[O-] (stereo unspecified)
T/C (dose: 2400.0 mg/kg/injection, schedule: Q04DX003 (sc), vehicle: suspension in saline): 104 % of control

BrCCC1(CCBr)CCCCC1
T/C (dose: 300.0 mg/kg/injection, schedule: Q04DX003 (sc), vehicle: water): 104 % of control
T/C (dose: 600.0 mg/kg/injection, schedule: Q04DX003 (sc), vehicle: water): 89 % of control
T/C (dose: 1200.0 mg/kg/injection, schedule: Q04DX003 (sc), vehicle: water): 85 % of control

O=C1N=C(Oc2ccccc2)SC1=O
T/C [1]: 87 % of control
T/C [2]: 93 % of control
T/C (dose: 400.0 mg/kg/injection, schedule: Q04DX003 (sc), vehicle: saline with Tween-80): 54 % of control

CC(=O)Nc1cscc1NC(C)=O
T/C (dose: 150.0 mg/kg/injection, schedule: Q04DX003 (sc), vehicle: saline with Tween-80): 89 % of control
T/C [3]: 121 % of control
T/C [4]: 111 % of control
T/C [5]: 110 % of control

NC(CCC(=O)NC(CS)C(=O)NCC(=O)O)C(=O)O (stereo unspecified)
T/C [6]: 97 % of control
T/C [7]: 69 % of control
T/C [8]: 74 % of control
T/C [9]: 121 % of control

Cc1cc2nc3[nH]c4ccccc4c3nc2cc1C
T/C (dose: 100.0 mg/kg/injection, schedule: Q01DX010 (sc), vehicle: saline): 88 % of control
T/C (dose: 200.0 mg/kg/injection, schedule: Q01DX010 (sc), vehicle: saline): 190 % of control
T/C (dose: 400.0 mg/kg/injection, schedule: Q01DX010 (sc), vehicle: saline): 92 % of control
T/C (dose: 800.0 mg/kg/injection, schedule: Q01DX010 (sc), vehicle: saline): 97 % of control

Nc1nc(=S)c2[nH]cnc2[nH]1
T/C (dose: 0.4 mg/kg/injection, schedule: Q01DX010 (sc), vehicle: Klucel (hydroxypropylcellulose) (HPC)): 105 % of control
T/C (dose: 1.6 mg/kg/injection, schedule: Q01DX010 (sc), vehicle: Klucel (hydroxypropylcellulose) (HPC)): 76 % of control
T/C (dose: 3.2 mg/kg/injection, schedule: Q01DX010 (sc), vehicle: Klucel (hydroxypropylcellulose) (HPC)): 58 % of control

c1cc(OCC2CO2)ccc1OCC1CO1 (stereo unspecified)
T/C [3]: 172 % of control
T/C [4]: 118 % of control
T/C [5]: 114 % of control
T/C [10]: 88 % of control

CC[C@@]1(O)C[C@H](OC2CC(N(C)C)C(OC3CC(O)C(OC4CCC(=O)C(C)O4)C(C)O3)C(C)O2)c2c(cc3c(c2O)C(=O)c2c(O)cccc2C3=O)[C@H]1C(=O)OC (stereo partly specified)
T/C (dose: 1.0 mg/kg/injection, schedule: Q01DX010 (sc), vehicle: water): 36 % of control
T/C (dose: 1.66 mg/kg/injection, schedule: Q04DX003 (sc), vehicle: water): 63 % of control
T/C (dose: 2.0 mg/kg/injection, schedule: Q01DX010 (sc), vehicle: water): 6 % of control
T/C (dose: 3.33 mg/kg/injection, schedule: Q04DX003 (sc), vehicle: water): 60 % of control
T/C (dose: 6.65 mg/kg/injection, schedule: Q04DX003 (sc), vehicle: water): 18 % of control

C[Si](C)(C)O/C=C1\CCCCC1=O
T/C [1]: 95 % of control
T/C [2]: 92 % of control

CCC1CCCCN1C(=S)N/N=C(\C)c1ccccn1 (stereo unspecified)
T/C (dose: 18.75 mg/kg/injection, schedule: Q04DX003 (sc), vehicle: saline with Tween-80): 100 % of control
T/C (dose: 37.5 mg/kg/injection, schedule: Q04DX003 (sc), vehicle: saline with Tween-80): 83 % of control
T/C (dose: 75.0 mg/kg/injection, schedule: Q04DX003 (sc), vehicle: saline with Tween-80): 81 % of control

N#Cc1cn(C2OC(CO)C(O)C2O)c2ncnc(N)c12 (stereo unspecified)
T/C (dose: 1.0 mg/kg/injection, schedule: Q01DX010 (sc), vehicle: saline): 26 % of control
T/C (dose: 2.0 mg/kg/injection, schedule: Q01DX010 (sc), vehicle: saline): 77 % of control

N#CC(OC1OC(COC2OC(CO)C(O)C(O)C2O)C(O)C(O)C1O)c1ccccc1 (stereo unspecified)
T/C [6]: 162 % of control
T/C [7]: 115 % of control
T/C [8]: 193 % of control
T/C [9]: 158 % of control

COc1cccc2c1C(=O)c1c(O)c3c(c(O)c1C2=O)C[C@@](O)(/C(C)=N\O)C[C@@H]3OC1CC(N)C(O)C(C)O1 (stereo partly specified)
T/C (dose: 25.0 mg/kg/injection, schedule: Q04DX003 (sc), vehicle: saline): 87 % of control
T/C (dose: 50.0 mg/kg/injection, schedule: Q04DX003 (sc), vehicle: saline): 65 % of control and 76 % of control
T/C (dose: 100.0 mg/kg/injection, schedule: Q04DX003 (sc), vehicle: saline): 17 % of control and 18 % of control

CC[C@]1(O)C[C@H]2CN(CCc3c([nH]c4ccccc34)[C@@](C(=O)OC)(c3cc4c(cc3OC)N(C=O)[C@H]3[C@@](O)(C(=O)OC)[C@H](OC(C)=O)[C@]5(CC)C=CCN6CC[C@]43[C@@H]65)C2)C1
T/C (dose: 0.13 mg/kg/injection, schedule: Q01DX010 (sc), vehicle: saline): 69 % of control
T/C (dose: 0.25 mg/kg/injection, schedule: Q01DX010 (sc), vehicle: saline): 20 % of control
T/C (dose: 0.5 mg/kg/injection, schedule: Q01DX010 (sc), vehicle: saline): 1 % of control

COc1ccc2ccccc2c1C1NC(=O)c2ccccc2N1 (stereo unspecified)
T/C (dose: 300.0 mg/kg/injection, schedule: Q04DX003 (sc), vehicle: Klucel (hydroxypropylcellulose) (HPC)): 113 % of control
T/C (dose: 600.0 mg/kg/injection, schedule: Q04DX003 (sc), vehicle: Klucel (hydroxypropylcellulose) (HPC)): 78 % of control
T/C (dose: 1200.0 mg/kg/injection, schedule: Q04DX003 (sc), vehicle: Klucel (hydroxypropylcellulose) (HPC)): 83 % of control
T/C (dose: 2400.0 mg/kg/injection, schedule: Q04DX003 (sc), vehicle: Klucel (hydroxypropylcellulose) (HPC)): 83 % of control

C/C(=N\NC(=S)N1CCN(c2ccccn2)CC1)c1ccccn1
T/C (dose: 37.5 mg/kg/injection, schedule: Q04DX003 (sc), vehicle: water): 106 % of control
T/C (dose: 75.0 mg/kg/injection, schedule: Q04DX003 (sc), vehicle: water): 102 % of control

CC(=O)NC(Cc1ccc(F)cc1)C(=O)O (stereo unspecified)
T/C [3]: 112 % of control
T/C [4]: 71 % of control
T/C [5]: 91 % of control
T/C [10]: 107 % of control

CCC1OC(OC)C=CC1=O (stereo unspecified)
T/C (dose: 37.5 mg/kg/injection, schedule: Q04DX003 (sc), vehicle: saline): 90 % of control
T/C (dose: 75.0 mg/kg/injection, schedule: Q04DX003 (sc), vehicle: saline): 99 % of control

C/C(=C\c1ccccc1)[N+](=O)[O-]
T/C (dose: 50.0 mg/kg/injection, schedule: Q01DX010 (sc), vehicle: Klucel (hydroxypropylcellulose) (HPC)): 96 % of control
T/C (dose: 100.0 mg/kg/injection, schedule: Q01DX010 (sc), vehicle: Klucel (hydroxypropylcellulose) (HPC)): 97 % of control
T/C [11]: 15 % of control

CC(=O)C(O)N1C(=O)C=CC1=O (stereo unspecified)
T/C (dose: 2.5 mg/kg/injection, schedule: Q01DX010 (sc), vehicle: saline): 73 % of control
T/C (dose: 5.0 mg/kg/injection, schedule: Q01DX010 (sc), vehicle: saline): 92 % of control
T/C (dose: 10.0 mg/kg/injection, schedule: Q01DX010 (sc), vehicle: saline): 101 % of control

COc1cccc2c1C(=O)c1c(O)c3c(c(O)c1C2=O)C[C@@](O)(C(=O)CO)C[C@@H]3OC1CC(OC(C)=O)C(OC(C)=O)C(C)O1 (stereo partly specified)
T/C (dose: 25.0 mg/kg/injection, schedule: Q01DX010 (sc), vehicle: distilled water + Tween-80): 53 % of control

CC(=O)Oc1[nH]c(=O)c2cccc3c2c1CCC3
T/C [3]: 62 % of control
T/C [4]: 68 % of control
T/C [5]: 90 % of control
T/C [10]: 83 % of control

CN(C)/N=N/c1nc[nH]c1C(N)=O
T/C (dose: 100.0 mg/kg/injection, schedule: Q04DX003 (sc), vehicle: Klucel (hydroxypropylcellulose) (HPC)): -25 % of control
T/C [11]: 2 % of control
T/C (dose: 200.0 mg/kg/injection, schedule: Q04DX003 (sc), vehicle: Klucel (hydroxypropylcellulose) (HPC)): -43 % of control
T/C (dose: 400.0 mg/kg/injection, schedule: Q04DX003 (sc), vehicle: Klucel (hydroxypropylcellulose) (HPC)): -91 % of control
T/C (dose: 800.0 mg/kg/injection, schedule: Q04DX003 (sc), vehicle: Klucel (hydroxypropylcellulose) (HPC)): -100 % of control

COc1ccc2cc1Oc1ccc(cc1)C[C@H]1c3cc(c(OC)cc3CCN1C)Oc1c(OC)c(OC)cc3c1[C@H](C2)N(C)CC3
T/C (dose: 100.0 mg/kg/injection, schedule: Q01DX010 (sc), vehicle: saline with Tween-80): 110 % of control
T/C (dose: 200.0 mg/kg/injection, schedule: Q01DX010 (sc), vehicle: saline with Tween-80): 122 % of control
